Test results reported in patent publication US20230079819A1, “COMPOUNDS AND USES THEREOF” (Foghorn Therapeutics Inc., priority 2019, published 2023).
Where two headings read alike, the source gives them in different places.

Tests used:
[1] = target: T1, BRG-1 (Homo sapiens, UniProt P51532); assay: ATPase catalytic activity of BRG-1, ADP-Glo in vitro biochemical assay; conditions: 30 nM BRG-1, 400 μM ATP, read-out: BRG1 IP50
T1 construct: made in house; host or cells: High Five insect cells

[2] = target: T2, BRM (Homo sapiens, UniProt P51531); assay: ATPase catalytic activity of BRM, ADP-Glo in vitro biochemical assay; conditions: 30 nM BRM, 400 μM ATP, read-out: BRM IP50
T2 construct: made in house; host or cells: High Five insect cells
T2 sequence (P51531 whole entry): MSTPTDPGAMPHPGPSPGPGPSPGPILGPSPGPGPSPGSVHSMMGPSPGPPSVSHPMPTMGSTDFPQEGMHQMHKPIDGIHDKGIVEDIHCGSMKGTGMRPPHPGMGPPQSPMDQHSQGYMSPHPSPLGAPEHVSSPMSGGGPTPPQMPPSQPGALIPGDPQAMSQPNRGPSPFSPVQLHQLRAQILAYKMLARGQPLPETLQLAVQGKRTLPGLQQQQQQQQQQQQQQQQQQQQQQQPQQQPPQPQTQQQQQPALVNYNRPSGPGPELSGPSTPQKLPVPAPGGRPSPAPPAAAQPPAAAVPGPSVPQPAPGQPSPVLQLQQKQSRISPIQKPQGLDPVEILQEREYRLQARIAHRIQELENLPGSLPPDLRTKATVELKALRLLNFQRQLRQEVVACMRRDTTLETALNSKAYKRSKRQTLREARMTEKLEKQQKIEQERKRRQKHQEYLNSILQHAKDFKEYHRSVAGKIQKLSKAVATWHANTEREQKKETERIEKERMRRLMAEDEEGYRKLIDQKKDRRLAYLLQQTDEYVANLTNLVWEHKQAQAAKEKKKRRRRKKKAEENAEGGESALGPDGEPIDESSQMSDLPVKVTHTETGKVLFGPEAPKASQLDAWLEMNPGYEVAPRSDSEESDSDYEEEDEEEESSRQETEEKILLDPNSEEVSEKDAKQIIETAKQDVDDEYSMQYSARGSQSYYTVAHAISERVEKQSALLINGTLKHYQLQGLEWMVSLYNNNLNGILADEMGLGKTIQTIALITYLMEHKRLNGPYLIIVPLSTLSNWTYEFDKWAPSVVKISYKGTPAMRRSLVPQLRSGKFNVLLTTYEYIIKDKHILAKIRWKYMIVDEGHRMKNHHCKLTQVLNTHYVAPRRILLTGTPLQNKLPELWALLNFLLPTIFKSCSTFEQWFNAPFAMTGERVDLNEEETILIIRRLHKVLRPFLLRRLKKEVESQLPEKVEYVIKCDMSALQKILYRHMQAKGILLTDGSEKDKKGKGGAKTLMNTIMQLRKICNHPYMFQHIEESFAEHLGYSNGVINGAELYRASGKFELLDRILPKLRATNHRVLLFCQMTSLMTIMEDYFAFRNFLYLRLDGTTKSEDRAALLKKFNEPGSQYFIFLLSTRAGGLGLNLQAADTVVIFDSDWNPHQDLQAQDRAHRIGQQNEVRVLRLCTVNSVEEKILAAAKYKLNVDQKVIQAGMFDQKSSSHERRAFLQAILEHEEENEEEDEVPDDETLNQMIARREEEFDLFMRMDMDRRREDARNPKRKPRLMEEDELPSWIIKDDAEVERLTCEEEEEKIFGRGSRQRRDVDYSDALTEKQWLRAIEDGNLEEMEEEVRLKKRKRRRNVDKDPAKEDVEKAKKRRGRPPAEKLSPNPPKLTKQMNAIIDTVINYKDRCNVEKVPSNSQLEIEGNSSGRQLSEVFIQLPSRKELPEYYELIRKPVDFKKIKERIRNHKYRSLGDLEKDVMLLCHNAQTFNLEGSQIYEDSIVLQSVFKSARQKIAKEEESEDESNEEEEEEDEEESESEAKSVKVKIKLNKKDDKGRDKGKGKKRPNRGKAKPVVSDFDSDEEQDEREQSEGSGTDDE

T1 sequence (P51532 whole entry): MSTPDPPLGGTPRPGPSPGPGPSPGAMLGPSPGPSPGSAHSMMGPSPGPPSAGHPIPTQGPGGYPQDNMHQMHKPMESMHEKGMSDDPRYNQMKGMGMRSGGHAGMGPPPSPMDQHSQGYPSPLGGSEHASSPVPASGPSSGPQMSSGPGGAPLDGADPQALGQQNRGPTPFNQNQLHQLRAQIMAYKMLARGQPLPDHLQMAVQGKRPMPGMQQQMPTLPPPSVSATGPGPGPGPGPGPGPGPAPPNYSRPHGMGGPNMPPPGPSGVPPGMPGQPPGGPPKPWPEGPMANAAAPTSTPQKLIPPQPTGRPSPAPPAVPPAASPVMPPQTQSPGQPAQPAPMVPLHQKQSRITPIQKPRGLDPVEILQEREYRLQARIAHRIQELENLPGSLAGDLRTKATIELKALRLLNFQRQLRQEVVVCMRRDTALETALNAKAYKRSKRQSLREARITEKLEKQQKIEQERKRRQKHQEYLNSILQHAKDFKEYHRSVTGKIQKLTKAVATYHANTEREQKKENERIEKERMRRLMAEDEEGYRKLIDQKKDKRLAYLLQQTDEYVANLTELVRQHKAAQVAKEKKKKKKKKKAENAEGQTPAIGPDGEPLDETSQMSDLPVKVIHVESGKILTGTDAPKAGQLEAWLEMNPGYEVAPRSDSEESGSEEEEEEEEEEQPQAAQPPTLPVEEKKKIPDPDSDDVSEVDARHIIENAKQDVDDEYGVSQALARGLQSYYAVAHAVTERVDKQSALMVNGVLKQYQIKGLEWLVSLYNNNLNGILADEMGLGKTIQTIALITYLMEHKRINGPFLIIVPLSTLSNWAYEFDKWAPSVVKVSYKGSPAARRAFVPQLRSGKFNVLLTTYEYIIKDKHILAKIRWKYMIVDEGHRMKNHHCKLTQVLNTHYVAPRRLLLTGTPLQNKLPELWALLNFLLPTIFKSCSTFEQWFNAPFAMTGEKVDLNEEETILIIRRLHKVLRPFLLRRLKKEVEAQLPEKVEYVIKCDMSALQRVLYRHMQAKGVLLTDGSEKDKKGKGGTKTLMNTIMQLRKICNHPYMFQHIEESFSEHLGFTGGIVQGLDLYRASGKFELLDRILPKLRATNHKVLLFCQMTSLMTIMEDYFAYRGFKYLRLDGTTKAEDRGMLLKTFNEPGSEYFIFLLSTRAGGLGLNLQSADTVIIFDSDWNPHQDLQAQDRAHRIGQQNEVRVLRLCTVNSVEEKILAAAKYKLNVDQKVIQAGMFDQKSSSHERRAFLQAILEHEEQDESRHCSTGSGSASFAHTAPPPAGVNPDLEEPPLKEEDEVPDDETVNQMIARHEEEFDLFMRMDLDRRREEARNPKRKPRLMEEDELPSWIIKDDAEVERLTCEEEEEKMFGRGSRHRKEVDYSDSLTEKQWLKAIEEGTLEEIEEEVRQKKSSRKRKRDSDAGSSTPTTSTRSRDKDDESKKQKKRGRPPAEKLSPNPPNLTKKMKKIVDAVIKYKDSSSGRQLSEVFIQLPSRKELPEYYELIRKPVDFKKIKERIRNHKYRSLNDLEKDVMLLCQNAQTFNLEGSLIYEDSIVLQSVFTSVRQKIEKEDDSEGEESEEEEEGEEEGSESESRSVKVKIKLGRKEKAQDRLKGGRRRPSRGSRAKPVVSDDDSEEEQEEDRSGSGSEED

SMILES | IC50 ([1]; ATPase catalytic activity) | IC50 ([2]; ATPase catalytic activity) | IC50 [1] | IC50 [2]
CS(=O)(=O)n1ccc(C(=O)NCC(=O)Nc2nc(-c3cccc(N4CC[C@H]5COC[C@@H]5C4)n3)cs2)c1 [Compound 745] | < 10 nM | < 10 nM | – | –
CS(=O)(=O)n1ccc(C(=O)NCC(=O)Nc2nc(-c3cccc(N4CC[C@@H]5COC[C@H]5C4)n3)cs2)c1 [Compound 746] | < 10 nM | < 10 nM | – | –
C[C@@H]1CN(c2cccc(-c3csc(NC(=O)CNC(=O)c4ccn(C(C)(C)C(F)F)c4)n3)n2)C[C@H](C)O1 [Compound 748] | < 10 nM | < 10 nM | – | –
CC(F)C(C)(F)n1ccc(C(=O)NCC(=O)Nc2nc(-c3cccc(N4C[C@@H](C)O[C@@H](C)C4)n3)cs2)c1 (stereo partly drawn) [Compound 749] | > 100 nM | > 100 nM | – | –
CS(=O)(=O)n1ccc(C(=O)NCC(=O)Nc2nc(-c3cccc(C45CCOCC4C5)n3)cs2)c1 (stereo not drawn) [Compound 750, 1-methylsulfonyl-N-[2-[[4-[6-(3-oxabicyclo[4.1.0]heptan-6-yl)-2-pyridyl]thiazol-2-yl]amino]-2-oxo-ethyl]pyrrole-3-carboxamide] | > 10 nM | > 10 nM | – | –
CC(C)(C)n1ccc(C(=O)NCC(=O)Nc2nc(-c3cccc(C45CCOCC4C5)n3)cs2)c1 (stereo not drawn) [Compound 751] | > 10 nM | > 10 nM | – | –
COC[C@H](NC(=O)c1ccn(S(C)(=O)=O)c1)C(=O)Nc1nc(-c2cccc([C@]34CCOC[C@H]3C4)n2)cs1 [Compound 755] | > 10 nM | > 10 nM | – | –
COC[C@H](NC(=O)c1ccn(S(C)(=O)=O)c1)C(=O)Nc1nc(-c2cccc([C@@]34CCOC[C@@H]3C4)n2)cs1 [Compound 756] | > 100 nM | > 10 nM | – | –
CN(C)[C@H]1CCN(c2cccc(-c3csc(NC(=O)CNC(=O)c4ccn(S(C)(=O)=O)c4)n3)n2)CC1(F)F [Compound 757] | > 100 nM | > 100 nM | – | –
COC[C@H](NC(=O)c1ccn(S(C)(=O)=O)c1)C(=O)Nc1nc(-c2cc(F)c3c(c2)CCN3C)cs1 [Compound 758] | < 10 nM | < 10 nM | – | –
COC[C@@H](NC(=O)c1ccn(S(C)(=O)=O)c1)C(=O)Nc1nc(-c2cc(F)c3c(c2)CCN3C)cs1 [Compound 759] | > 10 nM | > 10 nM | – | –
CN[C@H]1CCN(c2cccc(-c3csc(NC(=O)CNC(=O)c4ccn(S(C)(=O)=O)c4)n3)n2)CC1(F)F [Compound 760] | > 100 nM | > 100 nM | – | –
CN(C)[C@@H]1CCN(c2cccc(-c3csc(NC(=O)CNC(=O)c4ccn(S(C)(=O)=O)c4)n3)n2)CC1(F)F [Compound 762] | > 10 nM | > 10 nM | – | –
CN[C@@H]1CCN(c2cccc(-c3csc(NC(=O)CNC(=O)c4ccn(S(C)(=O)=O)c4)n3)n2)CC1(F)F [Compound 763, N-[2-[[4-[6-[(4R)-3,3-difluoro-4-(methylamino)-1-piperidyl]-2-pyridyl]thiazol-2-yl]amino]-2-oxo-ethyl]-1-methylsulfonyl-pyrrole-3-carboxamide] | < 10 nM | < 10 nM | – | –
CS(=O)(=O)n1ccc(C(=O)NCC(=O)Nc2nc(-c3cccc(N4CC[C@H]5OCC[C@@H]5C4)n3)cs2)c1 [Compound 764] | < 10 nM | < 10 nM | – | –
CCCOC(=O)N1CCC(c2csc(NC(=O)CNC(=O)c3ccn(S(C)(=O)=O)c3)n2)CC1 [Compound 765, propyl 4-[2-[[2-[(1-methylsulfonylpyrrole-3-carbonyl)amino]acetyl]amino]thiazol-4-yl]piperidine-1-carboxylate] | > 100 nM | > 10 nM | – | –
CS(=O)(=O)n1ccc(C(=O)NCC(=O)Nc2nc(-c3cccc(N4CC[C@@H]5OCC[C@H]5C4)n3)cs2)c1 [Compound 766] | < 10 nM | < 10 nM | – | –
C[C@@H]1CN(c2cccc(-c3csc(NC(=O)[C@H](C)NC(=O)c4ccn(S(C)(=O)=O)c4)n3)n2)C[C@H](C)O1 [Compound 767] | > 10 nM | < 10 nM | – | –
C[C@@H]1CN(c2cccc(-c3csc(NC(=O)[C@@H](C)NC(=O)c4ccn(S(C)(=O)=O)c4)n3)n2)C[C@H](C)O1 [Compound 768] | > 100 nM | > 100 nM | – | –
C[C@@H]1CN(c2cccc(-c3csc(NC(=O)[C@H](C)NC(=O)c4ccn(C(C)(C)C)c4)n3)n2)C[C@H](C)O1 [Compound 769] | > 10 nM | > 10 nM | – | –
CCCOC(=O)N1CCC[C@H](c2csc(NC(=O)CNC(=O)c3ccn(S(C)(=O)=O)c3)n2)C1 [Compound 771] | > 10 nM | > 10 nM | – | –
COC[C@H](NC(=O)c1ccn(S(C)(=O)=O)c1)C(=O)Nc1nc(-c2cccc(N3CC[C@H]4COC[C@@H]4C3)n2)cs1 [Compound 772] | < 10 nM | < 10 nM | – | –
COC[C@H](NC(=O)c1ccn(S(C)(=O)=O)c1)C(=O)Nc1nc(-c2cccc(N3CC[C@@H]4COC[C@H]4C3)n2)cs1 [Compound 773] | < 10 nM | < 10 nM | – | –
COC[C@H](NC(=O)c1ccn(S(C)(=O)=O)c1)C(=O)Nc1nc(-c2cccc(N3CC[C@H]4OCC[C@@H]4C3)n2)cs1 [Compound 774] | < 10 nM | < 10 nM | – | –
COC[C@H](NC(=O)c1ccn(S(C)(=O)=O)c1)C(=O)Nc1nc(-c2cccc(N3CC[C@@H]4OCC[C@H]4C3)n2)cs1 [Compound 775] | > 10 nM | < 10 nM | – | –
CS(=O)(=O)n1ccc(C(=O)NCC(=O)Nc2nc(-c3cccc(C4CCCOC4)c3)cs2)c1 (stereo not drawn) [Compound 776, 1-methylsulfonyl-N-[2-oxo-2-[[4-(3-tetrahydropyran-3-ylphenyl)thiazol-2-yl]amino]ethyl]pyrrole-3-carboxamide] | > 10 nM | > 10 nM | – | –

SMILES | IC50 ([1]; ATPase catalytic activity) | IC50 ([2]; ATPase catalytic activity) | IC50 [1] | IC50 [2]
C[C@@H]1CN(c2cccc(-c3csc(NC(=O)CNC(=O)c4ccn(C(C)(C)C)n4)n3)c2)C[C@H](C)O1 [Compound 777] | > 10 nM | > 10 nM | – | –
C[C@@H]1CN(c2cccc(-c3csc(NC(=O)CNC(=O)c4cn(C(C)(C)CO)cn4)n3)n2)C[C@H](C)O1 [Compound 778] | > 100 nM | > 10 nM | – | –
Cn1ccc(-c2cccc(-c3csc(NC(=O)CNC(=O)c4cn(C5(C#N)CC5)cn4)n3)c2)n1 [Compound 780] | > 100 nM | > 100 nM | – | –
C[C@@H]1CN(c2cccc(-c3csc(NC(=O)CNC(=O)c4cn(C5(C#N)CC5)cn4)n3)n2)C[C@H](C)O1 [Compound 781] | > 100 nM | > 10 nM | – | –
Cn1ccc2ccc(-c3csc(NC(=O)CNC(=O)c4ncn(C56CC(C5)C6)n4)n3)cc2c1=O [Compound 782] | > 100 nM | > 100 nM | – | –
CN1CCOc2ccc(-c3csc(NC(=O)CNC(=O)c4cn(C(C)(C)C#N)cn4)n3)cc21 [Compound 784] | > 10 nM | > 10 nM | – | –
CC(C)(C#N)n1cnc(C(=O)NCC(=O)Nc2nc(-c3cc(F)c4c(c3)OCC4)cs2)c1 [Compound 785] | > 10 nM | > 10 nM | – | –
C[C@@H]1CN(c2cccc(-c3csc(NC(=O)CNC(=O)c4ccn(C(C)(C)C#N)n4)n3)n2)C[C@H](C)O1 [Compound 786] | – | – | > 10 nM | < 10 nM
CN1CCOc2ccc(-c3csc(NC(=O)CNC(=O)c4ccn(C(C)(C)C#N)n4)n3)cc21 [Compound 787] | – | – | > 10 nM | > 10 nM
N#CC1(n2cnc(C(=O)NCC(=O)Nc3nc(-c4cc(F)c5c(c4)OCC5)cs3)c2)CC1 [Compound 788] | – | – | > 100 nM | > 100 nM
Cn1ccc(-c2cccc(-c3csc(NC(=O)CNC(=O)c4ccn(C(C)(C)C#N)n4)n3)c2)n1 [Compound 790] | – | – | > 10 nM | > 10 nM
CC(C)(C#N)n1ccc(C(=O)NCC(=O)Nc2nc(-c3cc(F)c4c(c3)OCC4)cs2)n1 [Compound 791] | – | – | > 10 nM | > 10 nM
C[C@H](NC(=O)c1ccn(C(C)(C)C)n1)C(=O)Nc1nc(-c2ccc3ccn(C)c(=O)c3c2)cs1 [Compound 792] | – | – | > 100 nM | > 100 nM
Cn1ccc2ccc(-c3csc(NC(=O)CNC(=O)c4ccn(C5(C#N)CC5)n4)n3)cc2c1=O [Compound 793] | – | – | > 10 nM | > 10 nM
N#CC1(n2ccc(C(=O)NCC(=O)Nc3nc(-c4cccc(OC(F)(F)F)c4)cs3)n2)CC1 [Compound 794] | – | – | > 100 nM | > 100 nM
C[C@@H]1CN(c2cccc(-c3csc(NC(=O)[C@H](C)NC(=O)c4ccn(C5(C#N)CC5)n4)n3)n2)C[C@H](C)O1 [Compound 795] | – | – | > 100 nM | > 10 nM
N#CC1(n2ccc(C(=O)NCC(=O)Nc3nc(-c4cc(F)cc(OC5CC5)c4)cs3)n2)CC1 [Compound 796] | – | – | > 100 nM | > 100 nM
C[C@@H]1CN(c2cccc(-c3csc(NC(=O)[C@H](C)NC(=O)c4cn(C5(C)COC5)cn4)n3)n2)C[C@H](C)O1 [Compound 797] | – | – | > 100 nM | > 100 nM
Cn1ccc(-c2cccc(-c3csc(NC(=O)CNC(=O)c4ccn(C5(C)COC5)n4)n3)c2)n1 [Compound 798] | – | – | > 100 nM | > 100 nM
C[C@H](NC(=O)c1cn(C2(C)COC2)cn1)C(=O)Nc1nc(-c2ccc3ccn(C)c(=O)c3c2)cs1 [Compound 801] | – | – | > 100 nM | > 100 nM
COC[C@H](NC(=O)c1cn(C(C)(C)C#N)cn1)C(=O)Nc1nc(-c2ccc3ccn(C)c(=O)c3c2)cs1 [Compound 802] | – | – | > 10 nM | > 10 nM
N#CC1(n2ccc(C(=O)NCC(=O)Nc3nc(-c4cc(F)c5c(c4)OCC5)cs3)n2)CC1 [Compound 803] | – | – | > 100 nM | > 10 nM
COC[C@H](NC(=O)c1cn(C2(C)COC2)cn1)C(=O)Nc1nc(-c2ccc3ccn(C)c(=O)c3c2)cs1 [Compound 804] | – | – | > 100 nM | > 100 nM
C[C@H](NC(=O)c1ccn(C2(C#N)CC2)n1)C(=O)Nc1nc(-c2ccc3ccn(C)c(=O)c3c2)cs1 [Compound 805] | – | – | > 100 nM | > 100 nM
C[C@@H]1CN(c2cccc(-c3csc(NC(=O)CNC(=O)c4ccn(C5(C#N)CC5)n4)n3)n2)C[C@H](C)O1 [Compound 806] | – | – | > 10 nM | > 10 nM
